Results taken from PMC1851987, “Identification of the Endogenous Key Substrates of the Human Organic Cation Transporter OCT2 and Their Implication in Function of Dopaminergic Neurons” (PLoS ONE, 2007).
Residue numbers refer to the chain shown, from its start.

Tests used:
OCT2 variant A270S = target: T1, OCT2 variant A270S (Homo sapiens, UniProt O15244); experiment: Specific uptake into HEK-293 cells transfected with OCT2 variant A270S
T1 sequence (O15244 1-555): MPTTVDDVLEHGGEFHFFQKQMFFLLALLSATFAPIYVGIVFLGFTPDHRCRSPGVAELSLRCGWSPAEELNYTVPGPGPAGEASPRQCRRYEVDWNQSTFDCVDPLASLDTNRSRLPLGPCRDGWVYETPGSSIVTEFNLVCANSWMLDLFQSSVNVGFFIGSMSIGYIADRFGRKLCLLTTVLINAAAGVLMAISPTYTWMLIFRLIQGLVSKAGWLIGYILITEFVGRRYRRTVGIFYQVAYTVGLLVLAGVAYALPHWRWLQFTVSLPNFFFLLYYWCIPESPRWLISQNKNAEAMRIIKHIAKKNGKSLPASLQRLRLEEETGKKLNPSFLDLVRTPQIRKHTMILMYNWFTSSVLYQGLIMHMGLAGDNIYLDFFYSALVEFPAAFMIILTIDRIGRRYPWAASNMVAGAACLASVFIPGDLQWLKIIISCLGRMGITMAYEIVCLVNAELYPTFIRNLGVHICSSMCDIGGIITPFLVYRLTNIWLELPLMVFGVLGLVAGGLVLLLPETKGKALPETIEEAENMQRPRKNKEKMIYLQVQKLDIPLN
Experimental: (§1) The cDNAs encoding the organic cation transporters OCT1 (GenBank accession no. NM_003057), OCT2 (NM_003058), and EMT (NM_021977) were amplified by RT-PCR from human liver, kidney, and placenta total RNA respectively, and subcloned into the eukaryotic expression vector pcDNA3. The cDNA encoding the norepinephrine transporter (SLC6A2) was kindly provided by C. Pifl (University of Vienna).
(§2) For uptake experiments, cells were grown on polystyrene dishes of 60 mm diameter to at least 80% confluence. […] Cells were lysed with 1 ml of 4 mmol/l perchloric acid and lysates subjected to LC-MS-MS quantification. Cellular protein content was determined after solubilization of perchloric acid precipitates with 1 ml of […] NaOH using the bicinchoninic assay (BCA Protein Assay Kit, Pierce).
(§3) Chromatographic separations were performed on Hypercarb (5 µm, 50×2.1 mm; Thermo Electron), Aquasil C18 (3 µm, 100×4.6 mm; Thermo Electron), or Hilic columns (5 µm, 100×3.0 mm; Waters Atlantis) by isocratic or gradient elution using 0.1% aqueous formic acid (A) and acetonitrile or methanol (B) as solvent system. For quantification, SRM transitions of a precursor ion [M+H]^+ into a specific fragment ion (peak area ratios relative to IS) were recorded in positive ESI mode at 1.0–1.5 mTorr collision pressure and 10–40 eV collision energy. […]

SH-SY5Y cells = experiment: MTT reduction cell viability assay, SH-SY5Y cells; type: cell-based, human
Experimental: Cell viability was assessed in HEK-293 cells, human dopaminergic neuroblastoma cells (SH-SY5Y) and human glioblastoma cells (HTZ-146) by the MTT test as described.[22] […] For indication of metabolic activity, cells were treated with MTT reagent (15 µl of 1 mg/ml stock solution per well) for 1 h, and after drying of culture plates for 1 h at 37°C, the resulting formazan dye was extracted with isopropanol/HCl (100 µl 0.04 mol/l per well) and absorbance was determined spectrophotometrically at 568 nm. Results were in agreement with the data obtained by the tryptan blue exclusion method (data not shown).

OCT2 variant K432Q = target: T2, OCT2 variant K432Q (Homo sapiens, UniProt O15244, K432Q/S270A); experiment: Specific uptake into HEK-293 cells transfected with OCT2 variant K432Q
T2 sequence (O15244 1-555 S270A/K432Q): T1 sequence (O15244 1-555) with S270A, K432Q
Experimental: as §1, §2, §3

[1] = incubation with 10 µmol/l, mean (s.e.m.)

Q: Which Km at 1 min (OCT2 variant A270S; human, pH 7.4) does the source give for `CC1NCCc2cc(O)c(O)cc21` (stereo not drawn) [salsolinol] here?
A: Its Km at 1 min is 132 µM.

Q: And the EC50 (SH-SY5Y cells; Homo sapiens, SH-SY5Y, 48 h, non-pretreated, read-out: EC50 (95% confidence interval), cell viability)?
A: The EC50 was 49 µM.

Q: And the Km at 1 min (OCT2 variant K432Q; human, pH 7.4)?
A: The Km at 1 min was 129 µM.

Q: With `O=C1NC(Cc2c[nH]cn2)C(=O)N2CCCC12` (stereo not drawn) [cyclo(his-pro), histidyl-proline diketopiperazine] as the compound, how does the Clin (OCT2 variant A270S; [1]) read?
A: Its Clin is 25.5 (3.3) µl/mg/min.

Q: And the “effect on glutamate-induced cytotoxicity” value (SH-SY5Y cells; pre-treated 1 h with 10 µmol/l cyclo(his-pro))?
A: Its value is “prevented”.

Q: And the Clin (OCT2 variant K432Q; [1])?
A: The Clin was 26.0 (4.3) µl/mg/min.
